Laboratory results: ChEMBL document CHEMBL3593172, “4-(N-Phenyl-N'-substituted benzenesulfonyl)-6-(4-hydroxyphenyl)quinolines as inhibitors of mammalian target of rapamycin” (Bioorg Med Chem, 2015)

Tests used:
HL-60 [1] = assay: Cytotoxicity against human HL60 cells assessed as growth inhibition at 30 uM after 24 to 48 hrs by MTT assay relative to control; format: functional; conditions: read-out: GI
HCT-116 [2] = assay: Cytotoxicity against human HCT116 cells assessed as growth inhibition at 30 uM after 24 to 48 hrs by MTT assay relative to control; format: functional; conditions: read-out: GI
HCT-116 [3] = assay: cells; conditions: Homo sapiens, HCT-116, 48 h
Description: Cytotoxicity against human HCT116 cells assessed as inhibition of cell proliferation after 48 hrs by MTT assay

HepG2 [4] = assay: Cytotoxicity against human HepG2 cells assessed as growth inhibition at 10 uM after 24 to 48 hrs by MTT assay relative to control; format: functional; conditions: read-out: GI
HL-60 [5] = assay: cells; conditions: Homo sapiens, HL-60, 48 h
Description: Cytotoxicity against human HL60 cells assessed as inhibition of cell proliferation after 48 hrs by MTT assay

HL-60 [6] = assay: Cytotoxicity against human HL60 cells assessed as growth inhibition at 10 uM after 24 to 48 hrs by MTT assay relative to control; format: functional; conditions: read-out: GI
HepG2 [7] = assay: Cytotoxicity against human HepG2 cells assessed as growth inhibition at 100 uM after 24 to 48 hrs by MTT assay relative to control; format: functional; conditions: read-out: GI
[8] = Cytotoxicity against human MIAPaCa2 cells assessed as growth inhibition at 10 uM after 24 to 48 hrs by MTT assay relative to control; format: functional; conditions: MIA PaCa-2, read-out: GI
HL-60 [9] = assay: Cytotoxicity against human HL60 cells assessed as growth inhibition at 100 uM after 24 to 48 hrs by MTT assay relative to control; format: functional; conditions: read-out: GI
PC-3 [10] = assay: Cytotoxicity against human PC3 cells assessed as growth inhibition at 30 uM after 24 to 48 hrs by MTT assay relative to control; format: functional; conditions: read-out: GI
HCT-116 [11] = assay: Cytotoxicity against human HCT116 cells assessed as growth inhibition at 100 uM after 24 to 48 hrs by MTT assay relative to control; format: functional; conditions: read-out: GI
[12] = Cytotoxicity against human MIAPaCa2 cells assessed as growth inhibition at 100 uM after 24 to 48 hrs by MTT assay relative to control; format: functional; conditions: MIA PaCa-2, read-out: GI
[13] = Cytotoxicity against human MIAPaCa2 cells assessed as growth inhibition at 30 uM after 24 to 48 hrs by MTT assay relative to control; format: functional; conditions: MIA PaCa-2, read-out: GI
PC-3 [14] = assay: cells; conditions: Homo sapiens, PC-3, 48 h
Description: Cytotoxicity against human PC3 cells assessed as inhibition of cell proliferation after 48 hrs by MTT assay

PC-3 [15] = assay: Cytotoxicity against human PC3 cells assessed as growth inhibition at 100 uM after 24 to 48 hrs by MTT assay relative to control; format: functional; conditions: read-out: GI
HepG2 [16] = assay: cells; conditions: Homo sapiens, HepG2, 48 h
Description: Cytotoxicity against human HepG2 cells assessed as inhibition of cell proliferation after 48 hrs by MTT assay

HCT-116 [17] = assay: Cytotoxicity against human HCT116 cells assessed as growth inhibition at 10 uM after 24 to 48 hrs by MTT assay relative to control; format: functional; conditions: read-out: GI
cells = conditions: Homo sapiens, MIA PaCa-2, 48 h
Description: Cytotoxicity against human MIAPaCa2 cells assessed as inhibition of cell proliferation after 48 hrs by MTT assay

HepG2 [18] = assay: Cytotoxicity against human HepG2 cells assessed as growth inhibition at 30 uM after 24 to 48 hrs by MTT assay relative to control; format: functional; conditions: read-out: GI
PC-3 [19] = assay: Cytotoxicity against human PC3 cells assessed as growth inhibition at 10 uM after 24 to 48 hrs by MTT assay relative to control; format: functional; conditions: read-out: GI

SMILES | IC50 (HCT-116 [3]) [µM] | IC50 (HL-60 [5]) [µM] | IC50 (PC-3 [14]) [µM] | IC50 (HepG2 [16]) [µM] | IC50 (cells) [µM] | inhibition of growth at 30 µM (HL-60 [1]) [%] | inhibition of growth at 30 µM (HCT-116 [2]) [%] | inhibition of growth at 10 µM (HepG2 [4]) [%] | inhibition of growth at 10 µM (HL-60 [6]) [%] | inhibition of growth at 100 µM (HepG2 [7]) [%] | inhibition of growth at 10 µM [8] [%] | inhibition of growth at 100 µM (HL-60 [9]) [%] | inhibition of growth at 30 µM (PC-3 [10]) [%] | inhibition of growth at 100 µM (HCT-116 [11]) [%] | inhibition of growth at 100 µM [12] [%] | inhibition of growth at 30 µM [13] [%] | inhibition of growth at 100 µM (PC-3 [15]) [%] | inhibition of growth at 10 µM (HCT-116 [17]) [%] | inhibition of growth at 30 µM (HepG2 [18]) [%] | inhibition of growth at 10 µM (PC-3 [19]) [%]
O=[N+]([O-])c1ccc(S(=O)(=O)N(c2ccccc2)c2ccnc3ccc(-c4ccc(O)cc4)cc23)cc1 | 90 | < 10 | > 100 | 22 | 25 | 87 | 4 | 8 | 86 | 84 | 21 | 89 | 30 | 58 | 81 | 59 | 47 | 2 | 76 | 4
COc1ccc(-c2ccc3nccc(Nc4ccccc4)c3c2)cc1 | 40 | 18 | 39 | > 100 | 26 | 69 | 45 | 19 | 32 | 36 | 42 | 91 | 46 | 77 | 55 | 53 | 71 | 16 | 30 | 40
O=S(=O)(c1ccc(F)cc1)N(c1ccccc1)c1ccnc2ccc(-c3ccc(O)cc3)cc12 | 27 | 28 | 42 | 85 | 65 | 51 | 57 | 1 | 2 | 60 | 9 | 79 | 43 | 92 | 70 | 30 | 87 | 20 | 10 | 16

More lines, main results first:

IC50 (HCT-116 [3]) [µM] | IC50 (HL-60 [5]) [µM] | IC50 (PC-3 [14]) [µM] | IC50 (HepG2 [16]) [µM] | IC50 (cells) [µM] | SMILES | inhibition of growth at 30 µM (HL-60 [1]) [%] | inhibition of growth at 30 µM (HCT-116 [2]) [%] | inhibition of growth at 10 µM (HepG2 [4]) [%] | inhibition of growth at 10 µM (HL-60 [6]) [%] | inhibition of growth at 100 µM (HepG2 [7]) [%] | inhibition of growth at 10 µM [8] [%] | inhibition of growth at 100 µM (HL-60 [9]) [%] | inhibition of growth at 30 µM (PC-3 [10]) [%] | inhibition of growth at 100 µM (HCT-116 [11]) [%] | inhibition of growth at 100 µM [12] [%] | inhibition of growth at 30 µM [13] [%] | inhibition of growth at 100 µM (PC-3 [15]) [%] | inhibition of growth at 10 µM (HCT-116 [17]) [%] | inhibition of growth at 30 µM (HepG2 [18]) [%] | inhibition of growth at 10 µM (PC-3 [19]) [%]
> 100 | < 10 | 18 | > 100 | 16 | O=[N+]([O-])c1cc(S(=O)(=O)N(c2ccccc2)c2ccnc3ccc(-c4ccc(O)cc4)cc23)ccc1C(F)(F)F | 92 | 23 | 3 | 90 | 8 | 45 | 93 | 68 | 29 | 79 | 60 | 84 | 20 | 3 | 39
80 | < 10 | 25 | < 10 | < 10 | O=S(=O)(c1ccc(F)cc1F)N(c1ccccc1)c1ccnc2ccc(-c3ccc(O)cc3)cc12 | 88 | 20 | 87 | 87 | 90 | 80 | 89 | 61 | 58 | 87 | 84 | 73 | 2 | 89 | 26
